Like-named read-outs stand apart in the source and are kept apart here.

From patent publication US10308595B2, “Albicidin derivatives, their use and synthesis” (priority 2013, dated 2019) come the findings set out here.

Type in all cases: cell-based
The subject of experiment [1] is Escherichia coli K12 (W1130). Kind of experiment: Test agar plates (disc diffusion), diameter of inhibition area. The settings on record: 10 μl per test disc, "—" no activity detected. As for the experimental part:
(§1) The dry compounds were dissolved in DMSO (1 mg/ml) and the so obtained stock solution was diluted with sterilized Millipore water 1:10 and 1:100
(§2) 20 μl of cryo stock of each strain were inoculated to 20 ml of Mueller-Hinton medium and grown overnight at 30° C. or 37° C. on a vertical shaker with 160 rpm. The inoculum for the test was adjusted by the 0.5 McFarland Standard (OD625 from 0.08 to 0.1)
Escherichia coli K12 (W1130) [gram. Neg.] Medium: MHB/37° C.
(§3) Every plate is prepared by pouring 10 ml Mueller-Hinton agar into standard petri dishes (diam 94 mm). The so obtained Mueller-Hinton plates are overlayed with 4 ml Mueller-Hinton soft agar containing 100 μl suspension of the test strain.
(§4) After the soft agar turned solid, sterile susceptibility test discs were circular placed on the agar and on every test disc 10 μl compound was added. Each concentration is tested in triplicate. The agar dishes were incubated for 18 hours at a temperature of 30° C. or 37° C. Results are obtained by measuring the diameter of inhibition area around each test disc.
(In general: A growth-free zone around the sample is the usual read-out of agar diffusion tests.)

A further experiment deals with Bacillus megaterium. The experiment is described as above. To be noted: 10 μl per test disc, "—" no activity detected. On the procedure: as §1, §2
Bacillus megaterium [gram. Pos.] Medium: MHB/30° C.
as §3, §4

For experiment [2], the system named is Mycobacterium phlei DSM750. The experiment is described as above. The settings on record: concentration 1 mg/ml; 10 μl per test disc; "—" no activity detected. As for the experimental part: as §1, §2
Mycobacterium phlei DSM750 [gram. Pos.] Medium: MHB/30° C.
as §3, §4

The subject of a further experiment is Bacillus subtilis DSM10. The experiment is described as above. The settings on record: for Antibacterial activity, diameter of inhibition area, Bacillus subtilis DSM 10: 10 μl per test disc, "—" no activity detected; for zone of inhibition at 1000 µg/mL: Bacillus subtilis, DSM10, 18 h, read-out: diameter of inhibition, Bacillus subtilis DSM10. On the procedure: as §1, §2
Bacillus subtilis DSM10 [gram. Pos.] Medium: MHB/30° C.
as §3, §4

Experiment [3] has as its system Micrococcus luteus DSM1790. The experiment is described as above. The settings on record: for Antibacterial activity, diameter of inhibition area, Micrococcus luteus: 10 μl per test disc, "—" no activity detected; for zone of inhibition at 1000 µg/mL: Micrococcus luteus, DSM1790, 18 h, read-out: diameter of inhibition, Micrococcus luteus DSM1790. On the procedure:
as §1, §2
Micrococcus luteus DSM1790 [gram. Pos.] Medium: MHB/37° C.
as §3, §4

The subject of experiment [4] is Escherichia coli albi-res (Montpellier). The description is as above. The settings on record: 18 h, read-out: diameter of inhibition, Escherichia coli albi-res (Montpellier). As for the experimental part: as §1, §2
Escherichia coli albi-res (Montpellier) [gram. Neg.] Medium: MHB/37° C.
as §3, §4

The subject of another experiment is Escherichia coli DH5α. The experiment is described as above. The settings on record: 18 h, read-out: diameter of inhibition, Escherichia coli DH5α. As for the experimental part:
as §1, §2
Escherichia coli DH5α [gram. Neg.] Medium: MHB/37° C.
as §3, §4

Experiment [5] has as its system Pseudomonas aeruginosa (ATCC 27853). Kind of experiment: EN-ISO standard test (ISO 20776-1), MIC. As for the experimental part:
(§5) Furthermore, compounds were tested against the following bacteria
(§6) Pseudomonas aeruginosa (ATCC 27853 and PEG-10-2-61)
(§7) according to EN-ISO standard (ISO 20776-1: 2006. Clinical laboratory testing and in vitro diagnostic test systems—Susceptibility testing of infectious agents and evaluation of performance of antimicrobial susceptibility test devices—Part 1:Reference method for testing the in vitro activity of antimicrobial agents against rapidly growing aerobic bacteria involved in infectious diseases; German version EN ISO 20776-1:2006. Beuth-Verlag, Berlin).

Experiment [6] has as its system Escherichia coli (ATCC 25922, 100-2-49 and 100-2-56). Kind of experiment: EN-ISO standard test (ISO 20776-1), MIC. On the procedure: as §5, §7
The test system of experiment [7] is Staphylococcus aureus (ATCC 29213). Kind of experiment: EN-ISO standard test (ISO 20776-1), MIC. As for the experimental part:
as §5, §7

Experiment [8] relates to Salmonella enteritidis (PEG-10-3-58). Kind of experiment: EN-ISO standard test (ISO 20776-1), MIC. On the procedure: as §5
Salmonella enteritidis (PEG-10-3-58),
as §7

In experiment [9] the test system is Pseudomonas aeruginosa DSM1117. Nature of the experiment: Test agar plates (disc diffusion), diameter of inhibition area. To be noted: DSM1117, 18 h, read-out: diameter of inhibition, Pseudomonas aeruginosa DSM1117. As for the experimental part:
as §1, §2
Pseudomonas aeruginosa DSM1117 [gram. Neg.] Medium: MHB/37° C.
as §3, §4

Experiment [10] relates to Staphylococcus aureus DSM 2569. Described as above. The settings on record: DSM2569, 18 h, read-out: diameter of inhibition, Staphylococcus aureus DSM 2569. On the procedure: as §1, §2
Staphylococcus aureus DSM 2569 [gram. Pos.] Medium: MHB/37° C.
as §3, §4

In experiment [11] the test system is Pseudomonas aeruginosa (PEG-10-2-61). Kind of experiment: EN-ISO standard test (ISO 20776-1), MIC. As for the experimental part: as §5, §6, §7
Experiment [12] concerns Staphylococcus aureus (PEG 10-38-22). Kind of experiment: EN-ISO standard test (ISO 20776-1), MIC. On the procedure: as §5, §7
Where [13] appears, read: test agar plates, active substance 1 mg/ml, more than 1 cm or more than 2 cm.
[14] abbreviates: test agar plates, active substance 1 mg/ml, more than 1 cm or more than 3.9 cm [sic].
[15] abbreviates: test agar plates, active substance 1 mg/ml, "more than 1 cm and more than 2 cm" [sic].

Take `COc1c(NC(=O)c2ccc(NC(=O)c3ccc(NC(=O)[C@H](CC#N)NC(=O)c4ccc(NC(=O)/C(C)=C/c5ccc(O)cc5)cc4)cc3)c(OC)c2O)ccc(C(=O)O)c1O` [A, beta-Albicidin]: the “Antibacterial activity, diameter of inhibition area, Escherichia coli K12 (W1130)” value was 1.9 in experiment [1] (concentration 0.1 mg/ml) and 2.6 in [1] (concentration 1 mg/ml). Moreover, the “Antibacterial activity, diameter of inhibition area, Bacillus megaterium” value in the experiment on Bacillus megaterium (concentration 0.1 mg/ml) is recorded as 1.2; with Bacillus megaterium (concentration 1 mg/ml), 2.0. Also, the “Antibacterial activity, diameter of inhibition area, Mycobacterium phlei DSM 750” value in [2] was 1.5. Moreover, the “Antibacterial activity, diameter of inhibition area, Bacillus subtilis DSM 10” value in the experiment on Bacillus subtilis DSM10 (concentration 0.1 mg/ml) was found to be 1.4; in the experiment with Bacillus subtilis DSM10 (concentration 1 mg/ml), 2.8. Moreover, the “Antibacterial activity, diameter of inhibition area, Micrococcus luteus” value in [3] (concentration 0.1 mg/ml) came out at 2.0; in experiment [3] (concentration 1 mg/ml), 2.8.

For the compound `COc1c(NC(=O)c2ccc(NC(=O)c3ccc(NC(=O)C(CC#N)NC(=O)c4ccc(NC(=O)COc5ccccc5)cc4)cc3)c(OC)c2O)ccc(C(=O)O)c1O` (centres unmarked) [Compound 30], the zone of inhibition at 1000 µg/mL (in experiment [4]; with Escherichia coli DH5α; with Bacillus subtilis DSM10; in [9]; in experiment [3]; in [10]) was above 10 mm in each case. Also, the “MIC values, in words” value in experiment [5], in [7] and in [8] was “good to very good” each time. Moreover, the “MIC values (minimal inhibitory concentration), in words” value in experiment [6] is recorded as “good to very good”.

As to `COc1c(NC(=O)c2ccc(NC(=O)c3ccc(NC(=O)C(CC#N)NC(=O)c4ccc(NC(=O)/C=C/c5ccc6c(c5)OCO6)cc4)cc3)c(OC)c2O)ccc(C(=O)O)c1O` (centres unmarked) [Compound 5], the zone of inhibition at 1000 µg/mL (in experiment [4] (setting [13]); in the experiment on Escherichia coli DH5α (setting [13]); in the experiment on Bacillus subtilis DSM10 (setting [14]); in experiment [9] (setting [13]); in experiment [3] (setting [15]); in experiment [10] (setting [15])) was above 10 mm throughout. Moreover, the “MIC values, in words” value in experiment [11], in [5], in [12], in [7] and in [8] was “good to very good” throughout. Moreover, in experiment [6], the “MIC values (minimal inhibitory concentration), in words” value is reported as “good to very good”.

Regarding `CN[C@@H]1[C@@H](O[C@H]2O[C@H](CO)[C@@H](N)[C@H](O)[C@H]2O)OC2C[C@@H](N)[C@@H](O[C@H]3[C@H](O)[C@@H](O)[C@H](N)C[C@@H]3N)OC2[C@@H]1O` (some centres unmarked) [Apramycin, reference compound], the “Antibacterial activity, diameter of inhibition area, Escherichia coli K12 (W1130)” value in experiment [1] (concentration 1 mg/ml) worked out at 1.7. Moreover, the “Antibacterial activity, diameter of inhibition area, Bacillus megaterium” value in the experiment with Bacillus megaterium (concentration 1 mg/ml) came to 3.5. The “Antibacterial activity, diameter of inhibition area, Mycobacterium phlei DSM 750” value in experiment [2] is 2.2. The “Antibacterial activity, diameter of inhibition area, Bacillus subtilis DSM 10” value in the experiment on Bacillus subtilis DSM10 (concentration 1 mg/ml) amounted to 2.0. The “Antibacterial activity, diameter of inhibition area, Micrococcus luteus” value in [3] (concentration 1 mg/ml) amounted to 1.8.

`COc1c(NC(=O)c2ccc(NC(=O)c3ccc(NC(=O)C(CC#N)NC(=O)c4ccc(NC(=O)c5cscn5)cc4)cc3)c(OC)c2O)ccc(C(=O)O)c1O` (centres unmarked) [Compound 16]: the zone of inhibition at 1000 µg/mL (in experiment [4] (setting [13]); in the experiment with Escherichia coli DH5α (setting [13]); with Bacillus subtilis DSM10 (setting [14]); in experiment [3] (setting [15]); in experiment [10] (setting [15])) was above 10 mm in each case. Also, the “MIC values (minimal inhibitory concentration), in words” value in experiment [6] is recorded as “good to very good”. Moreover, in [8], the “MIC values, in words” value is recorded as “good to very good”.

`COc1c(NC(=O)c2ccc(NC(=O)c3ccc(NC(=O)C(CC#N)NC(=O)c4ccc(NC(=O)C5CCCCC5)cc4)cc3)c(OC)c2O)ccc(C(=O)O)c1O` (centres unmarked) [Compound 35]: the zone of inhibition at 1000 µg/mL (in [4]; in the experiment with Escherichia coli DH5α (setting [13]); in the experiment with Bacillus subtilis DSM10 (setting [14]); in [9] (setting [13]); in [10] (setting [15])) was above 10 mm in each case. Moreover, the “MIC values, in words” value in experiment [5] and in experiment [8] was “good to very good” throughout. For the same compound, the “MIC values (minimal inhibitory concentration), in words” value in experiment [6] is on record as “good to very good”.

In the case of `COc1c(NC(=O)c2ccc(NC(=O)c3ccc(NC(=O)C(CC#N)NC(=O)c4ccc(NC(=O)/C(C)=C/c5ccc(F)cc5)cc4)cc3)c(OC)c2O)ccc(C(=O)O)c1O` (centres unmarked) [Compound 1], the zone of inhibition at 1000 µg/mL (in experiment [4] (setting [13]); in the experiment with Escherichia coli DH5α (setting [13]); in the experiment with Bacillus subtilis DSM10 (setting [14]); in experiment [9] (setting [13]); in experiment [3] (setting [15]); in experiment [10] (setting [15])) was above 10 mm in each case. Moreover, the “MIC values, in words” value in [11], in [5], in experiment [12], in experiment [7] and in experiment [8] was “good to very good” each time. Further, the “MIC values (minimal inhibitory concentration), in words” value in experiment [6] is on record as “good to very good”.

As to `COc1c(NC(=O)c2ccc(NC(=O)c3ccc(NC(=O)C(CC#N)NC(=O)c4ccc(NC(=O)Nc5ccccc5)cc4)cc3)c(OC)c2O)ccc(C(=O)O)c1O` (centres unmarked) [Compound 43], the zone of inhibition at 1000 µg/mL (in experiment [4]; with Bacillus subtilis DSM10 (setting [14]); in [9] (setting [13])) was above 10 mm in each case. For the same compound, in experiment [6], the “MIC values (minimal inhibitory concentration), in words” value was “good to very good”. In experiment [8], the “MIC values, in words” value is listed as “good to very good”.

`COc1c(NC(=O)c2ccc(NC(=O)c3ccc(NC(=O)C(CC#N)NC(=O)c4ccc(NC(=O)C5C6CC7CC(C6)CC5C7)cc4)cc3)c(OC)c2O)ccc(C(=O)O)c1O` (centres unmarked) [Compound 36]: the zone of inhibition at 1000 µg/mL (in experiment [4]; in the experiment with Escherichia coli DH5α (setting [13]); in the experiment on Bacillus subtilis DSM10 (setting [14]); in experiment [9] (setting [13]); in experiment [3] (setting [15]); in experiment [10] (setting [15])) was above 10 mm in each case. The “MIC values, in words” value in [11], in [5], in experiment [12], in experiment [7] and in experiment [8] was “good to very good” in each case. Also, the “MIC values (minimal inhibitory concentration), in words” value in experiment [6] is reported as “good to very good”.
